Assay results published in publication PMC8864165, “Functional Effects of ARV-1502 Analogs Against Bacterial Hsp70 and Implications for Antimicrobial Activity” (Frontiers in Chemistry, 2022).
Square brackets hold non-standard residues; d marks the D form. Peptide text beside a SMILES is read from it. Ac6c = NC1(C(=O)O)CCCCC1

Legend:
[1] = tested on: E. coli DnaK/DnaJ/GrpE-chaperone system; assay: ATPase activity assay (malachite green), chaperone system; format: biochemical, Escherichia coli; details: peptide screen, 0.3 mmol/L peptide; for ATPase activity of the E. coli DnaK/DnaJ/GrpE system, normalized to activity without peptide (100%): 37°C, 2 h, triplicates
Procedure: (§1) ATPase activity of E. coli and S. aureus chaperones was studied in the presence of an AMP using a 384-well plate colorimetric assay ([Chang et al., 2008]; [Zahn et al., 2013]). […] The chaperone mix (13.5 µL) was incubated with an aqueous peptide solution (1.5 µL; final concentration 0.3 mmol/L) at 37°C for 30 min in a non-binding 384-well plate (flat bottom, Greiner Bio-One GmbH). Each sample was prepared in triplicates on the same plate. The reaction was started by addition of ATP dissolved in assay buffer (5 µL, 4 mmol/L) and the plate centrifuged (500 × g, 2 min; Allegra™ 21R, Beckmann Coulter, Krefeld, Germany) before incubated (37°C, 2 h). The released phosphate was quantified using an external phosphate dilution series (10–200 µmol/L KH2PO4 in assay buffer) prepared on each plate and treated equally as the samples. The reaction was stopped by adding assay buffer (80 µL) to all samples except the phosphate dilution series. Aliquots of all samples (10 µL) were transferred to a clear 384-well plate (flat bottom, Greiner Bio-One GmbH) and malachite green reagent added (90 µL; mixture of malachite green in water (0.04%, w/v), ammonium molybdate (2%, w/w) in aqueous sulfuric acid (3.5 mol/L), and water at a ratio of 1:1:3.6, v/v/v). After 15 min, the absorbance was recorded at 620 nm on the […]™ microplate reader. The phosphate standard curve was fitted by a hyperbolic equation y = (ax)/(b + x) + c.

S. aureus DnaK [2] = target: T1, S. aureus DnaK (Staphylococcus aureus, UniProt P99110); assay: FP peptide binding screening against Cf-ARV-1502; details: screening: DnaK 16 µmol/L, unlabeled peptide 35 µmol/L, duplicate, below 1 = better than ARV-1502
T1 construct: His6-tag with TEV site ([…]) (N, cleaved yes); made in house; host or cells: E. coli (DE3) Rosetta pLysS

E. coli DnaK [3] = target: T2, E. coli DnaK (Escherichia coli, UniProt P0A6Y8); format: binding
T2 construct: His6-tag with TEV site ([…]) (N, cleaved yes); made in house; host or cells: E. coli (DE3) Rosetta pLysS
Procedure: The plate was incubated (90 min, 28°C, dark) and Cf-ARV-1502 (80 nmol/L; 10 µL/well) added. […] Each peptide was screened in duplicate. Control samples either lacked the unlabeled peptide (maximum) or contained Cf-ARV-1502 in buffer (minimum).
(§2) The quality of the experimental set up was evaluated by the Z′ factor ([Zhang et al., 1999]) (Supplementary Table S2). […] The obtained FP-values were normalized to the FP-values determined for lead sequence ARV-1502.

[4] = tested on: S. aureus DnaK/DnaJ/GrpE-chaperone system; assay: ATPase activity assay (malachite green), chaperone system; format: biochemical, Staphylococcus aureus; details: peptide screen, 0.3 mmol/L peptide; for ATPase activity of the S. aureus DnaK/DnaJ/GrpE system, normalized to activity without peptide (100%): 37°C, 2 h, triplicates
Procedure: as §1

E. coli DnaK [5] = target: T2, E. coli DnaK; assay: Competitive fluorescence polarization Ki; format: binding; details: unlabeled peptide competing with Cf-labeled peptide; DnaK 5 µmol/L; 90 + 90 min, 28°C
Procedure: as §2

S. aureus DnaK [6] = target: T1, S. aureus DnaK; assay: Competitive fluorescence polarization Ki; format: binding; details: unlabeled peptide competing with Cf-labeled peptide; DnaK 16 µmol/L; 90 + 90 min, 28°C
Procedure: as §2

T1 sequence (P99110 whole entry): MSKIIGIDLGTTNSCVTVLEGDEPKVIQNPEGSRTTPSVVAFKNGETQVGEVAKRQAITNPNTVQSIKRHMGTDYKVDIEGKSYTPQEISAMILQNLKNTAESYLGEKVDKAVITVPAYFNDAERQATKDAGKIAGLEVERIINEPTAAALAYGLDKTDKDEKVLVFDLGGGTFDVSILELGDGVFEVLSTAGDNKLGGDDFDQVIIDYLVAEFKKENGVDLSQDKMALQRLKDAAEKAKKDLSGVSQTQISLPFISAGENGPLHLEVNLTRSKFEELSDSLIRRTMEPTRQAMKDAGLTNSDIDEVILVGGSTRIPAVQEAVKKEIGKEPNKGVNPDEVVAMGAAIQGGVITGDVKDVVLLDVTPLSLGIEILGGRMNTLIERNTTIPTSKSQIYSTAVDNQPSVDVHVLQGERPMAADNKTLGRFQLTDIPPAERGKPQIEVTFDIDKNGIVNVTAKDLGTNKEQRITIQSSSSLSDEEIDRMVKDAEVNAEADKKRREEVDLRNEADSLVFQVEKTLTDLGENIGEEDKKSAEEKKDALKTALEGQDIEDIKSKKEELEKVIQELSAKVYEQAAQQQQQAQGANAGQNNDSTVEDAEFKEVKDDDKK
T2 sequence (P0A6Y8 whole entry): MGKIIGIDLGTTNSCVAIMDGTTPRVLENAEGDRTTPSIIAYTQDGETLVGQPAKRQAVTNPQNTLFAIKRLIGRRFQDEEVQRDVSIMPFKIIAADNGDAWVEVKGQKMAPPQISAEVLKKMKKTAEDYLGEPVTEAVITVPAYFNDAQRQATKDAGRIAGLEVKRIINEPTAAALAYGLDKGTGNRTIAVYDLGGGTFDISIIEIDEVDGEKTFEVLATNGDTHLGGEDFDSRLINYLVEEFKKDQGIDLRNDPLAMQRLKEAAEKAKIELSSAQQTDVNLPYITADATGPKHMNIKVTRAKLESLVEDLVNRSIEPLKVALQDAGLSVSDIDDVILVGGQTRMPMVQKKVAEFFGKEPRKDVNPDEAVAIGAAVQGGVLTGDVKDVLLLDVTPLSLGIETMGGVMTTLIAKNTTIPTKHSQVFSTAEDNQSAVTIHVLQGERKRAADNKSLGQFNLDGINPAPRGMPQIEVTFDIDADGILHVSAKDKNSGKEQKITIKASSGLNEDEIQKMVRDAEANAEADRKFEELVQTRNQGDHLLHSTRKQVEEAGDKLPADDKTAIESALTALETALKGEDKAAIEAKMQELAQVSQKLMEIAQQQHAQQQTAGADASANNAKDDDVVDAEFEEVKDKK

“Chex-RPDKPRPSLDRPRPPRPVR-NH2 [compound 128, substituted analog of ARV-1502]” was tested, and the “ATPase activity of the E. coli DnaK/DnaJ/GrpE system, normalized to activity without peptide (100%)” value [1] was “below 60%”.
With `CC(C)C[C@H](NC(=O)[C@H](Cc1ccc(O)cc1)NC(=O)[C@@H]1CCCN1C(=O)[C@H](CCCNC(=N)N)NC(=O)[C@@H]1CCCN1C(=O)[C@H](Cc1ccccc1)NC(=O)[C@H](Cc1ccccc1)NC(=O)[C@@H]1CCCN1C(=O)[C@H](CCCNC(=N)N)NC(=O)C1(N)CCCCC1)C(=O)N[C@@H](CO)C(=O)N[C@@H](CCCNC(=N)N)C(=O)N1CCC[C@H]1C(=O)N[C@@H](CCCNC(=N)N)C(=O)N1CCC[C@H]1C(=O)N1CCC[C@H]1C(=O)N[C@@H](CCCNC(=N)N)C(=O)N1CCC[C@H]1C(=O)N[C@H](C(=O)N[C@@H](CCCNC(=N)N)C(N)=O)C(C)C` [compound 99] (H-[Ac6c]RPFFPRPYLSRPRPPRPVR-NH2) the “binding to S. aureus DnaK, FP-value normalized to ARV-1502” value (S. aureus DnaK [2]) was “best binders”, the “binding to E. coli DnaK, FP-value normalized to ARV-1502” value (E. coli DnaK [3]) was “best binders” and the “DnaK binding in the screening, in words” value (E. coli DnaK [3]; FP screening, DnaK variant not stated at the place) was “best binding”.
“Chex-RPFFPRPKLPRPRPPRPVR-NH2 [compound 90, substituted analog of ARV-1502]” was tested, and the “binding to S. aureus DnaK, FP-value normalized to ARV-1502” value (S. aureus DnaK [2]) was “best binders” and the “binding to E. coli DnaK, FP-value normalized to ARV-1502” value (E. coli DnaK [3]) was “best binders”.
In the case of “Chex-RPDKPRPSLPRSRPPRPVR-NH2 [compound 133, substituted analog of ARV-1502]”, the “binding to S. aureus DnaK, FP-value normalized to ARV-1502” value (S. aureus DnaK [2]) is reported as “best binders”.
In the case of “Chex-RPDKPRPDLPRSRPPRPVR-NH2 [compound 119, substituted analog of ARV-1502]”, the “ATPase activity of the S. aureus DnaK/DnaJ/GrpE system, normalized to activity without peptide (100%)” value [4] is reported as “more than 160%”.
In the case of “Chex-RPDDPRPDLPRPRPPRPVR-NH2 [compound 53, substituted analog of ARV-1502]”, the “increase of ATPase activity, S. aureus chaperone system” value (shortened to “increase of ATPase activity”) [4] is reported as ≥ 60%.
“Chex-RPDKPRPKSPRPRPPRPVR-NH2 [compound 122, substituted analog of ARV-1502]” was tested, and the “binding to S. aureus DnaK, FP-value normalized to ARV-1502” value (S. aureus DnaK [2]) was “bound neither” and the “binding to E. coli DnaK, FP-value normalized to ARV-1502” value (E. coli DnaK [3]) was “bound neither”.
With “Chex-RPDKPRPDKPRPRPPRPVR-NH2 [compound 108, substituted analog of ARV-1502]” the “binding to S. aureus DnaK, FP-value normalized to ARV-1502” value (S. aureus DnaK [2]) was “bound neither” and the “binding to E. coli DnaK, FP-value normalized to ARV-1502” value (E. coli DnaK [3]) was “bound neither”.
For “Chex-RPDDPRPYLPRDRPPRPVR-NH2 [compound 68, substituted analog of ARV-1502]”, the “decrease of ATPase activity, E. coli chaperone system” value [1] was 50%.
“Chex-RPDKPRPYSPDPRPPRPVR-NH2 [compound 170, substituted analog of ARV-1502]” was tested, and the “binding to S. aureus DnaK, FP-value normalized to ARV-1502” value (S. aureus DnaK [2]) was “best binders”.
Molecule `CC(C)C[C@H](NC(=O)[C@H](Cc1ccc(O)cc1)NC(=O)[C@@H]1CCCN1C(=O)[C@H](CCCNC(=N)N)NC(=O)[C@@H]1CCCN1C(=O)[C@H](CCCCN)NC(=O)[C@H](CCCCN)NC(=O)[C@@H]1CCCN1C(=O)[C@H](CCCNC(=N)N)NC(=O)C1(N)CCCCC1)C(=O)N1CCC[C@H]1C(=O)N[C@@H](CCCNC(=N)N)C(=O)N1CCC[C@H]1C(=O)N[C@@H](CCCNC(=N)N)C(=O)N1CCC[C@H]1C(=O)N1CCC[C@H]1C(=O)N[C@@H](CCCNC(=N)N)C(=O)N1CCC[C@H]1C(=O)N[C@H](C(=O)N[C@@H](CCCNC(=N)N)C(N)=O)C(C)C` [peptide 2] (H-[Ac6c]RPKKPRPYLPRPRPPRPVR-NH2) has a Ki (E. coli DnaK [5]) of 0.6 µM.
For “Chex-RPFFPRPSLPRPRPPRPVR-NH2 [compound 91, substituted analog of ARV-1502]”, the “binding to S. aureus DnaK, FP-value normalized to ARV-1502” value (S. aureus DnaK [2]) was “best binders” and the “binding to E. coli DnaK, FP-value normalized to ARV-1502” value (E. coli DnaK [3]) was “best binders”.
In the case of “Chex-RPDDPRPKLPRPRPPRPVR-NH2 [compound 54, substituted analog of ARV-1502]”, the “binding to S. aureus DnaK, FP-value normalized to ARV-1502” value (S. aureus DnaK [2]) is reported as “best binders”.
In the case of “Chex-RPDKPRPDLPRDRPPRPVR-NH2 [compound 117, substituted analog of ARV-1502]”, the “increase of ATPase activity” value [4] is reported as ≥ 60% and the “ATPase activity of the E. coli DnaK/DnaJ/GrpE system, normalized to activity without peptide (100%)” value [1] is reported as “below 60%”.
In the case of “Chex-RPDDPRPYLPLPRPPRPVR-NH2 [compound 66, substituted analog of ARV-1502]”, the “decrease of ATPase activity, E. coli chaperone system” value [1] is reported as “at least 40%” and the “ATPase activity of the E. coli DnaK/DnaJ/GrpE system, normalized to activity without peptide (100%)” value [1] is reported as “below 60%”.
For “Chex-RPFFPRPYLPRSRPPRPVR-NH2 [compound 106, substituted analog of ARV-1502]”, the “binding to S. aureus DnaK, FP-value normalized to ARV-1502” value (S. aureus DnaK [2]) was “best binders” and the “binding to E. coli DnaK, FP-value normalized to ARV-1502” value (E. coli DnaK [3]) was “best binders”.
“Chex-RPDKPRPDDPRPRPPRPVR-NH2 [compound 107, substituted analog of ARV-1502]” was tested, and the “increase of ATPase activity” value [4] was ≥ 60%.
With “Chex-RPFFPRPYLPSPRPPRPVR-NH2 [compound 101, substituted analog of ARV-1502]” the “binding to S. aureus DnaK, FP-value normalized to ARV-1502” value (S. aureus DnaK [2]) was “best binders” and the “binding to E. coli DnaK, FP-value normalized to ARV-1502” value (E. coli DnaK [3]) was “best binders”.
For `CC(C)C[C@H](NC(=O)[C@H](Cc1ccc(O)cc1)NC(=O)[C@@H]1CCCN1C(=O)[C@H](CCCNC(=N)N)NC(=O)[C@@H]1CCCN1C(=O)[C@H](Cc1ccccc1)NC(=O)[C@H](Cc1ccccc1)NC(=O)[C@@H]1CCCN1C(=O)[C@H](CCCNC(=N)N)NC(=O)C1(N)CCCCC1)C(=O)N1CCC[C@H]1C(=O)N[C@@H](CCCNC(=N)N)C(=O)N[C@@H](CCCCN)C(=O)N[C@@H](CCCNC(=N)N)C(=O)N1CCC[C@H]1C(=O)N1CCC[C@H]1C(=O)N[C@@H](CCCNC(=N)N)C(=O)N1CCC[C@H]1C(=O)N[C@H](C(=O)N[C@@H](CCCNC(=N)N)C(N)=O)C(C)C` [peptide 105] (H-[Ac6c]RPFFPRPYLPRKRPPRPVR-NH2), the “binding to S. aureus DnaK, FP-value normalized to ARV-1502” value (S. aureus DnaK [2]) was “best binders” and the “binding to E. coli DnaK, FP-value normalized to ARV-1502” value (E. coli DnaK [3]) was “best binders”.
For “Chex-RPSSPRPYLPSPRPPRPVR-NH2 [compound 83, substituted analog of ARV-1502]”, the “ATPase activity of the S. aureus DnaK/DnaJ/GrpE system, normalized to activity without peptide (100%)” value [4] was “more than 160%”.
`CC(C)C[C@H](NC(=O)[C@H](CO)NC(=O)[C@@H]1CCCN1C(=O)[C@H](CCCNC(=N)N)NC(=O)[C@@H]1CCCN1C(=O)[C@H](CCCCN)NC(=O)[C@H](CC(=O)O)NC(=O)[C@@H]1CCCN1C(=O)[C@H](CCCNC(=N)N)NC(=O)C1(N)CCCCC1)C(=O)N1CCC[C@H]1C(=O)N[C@@H](Cc1ccccc1)C(=O)N1CCC[C@H]1C(=O)N[C@@H](CCCNC(=N)N)C(=O)N1CCC[C@H]1C(=O)N1CCC[C@H]1C(=O)N[C@@H](CCCNC(=N)N)C(=O)N1CCC[C@H]1C(=O)N[C@H](C(=O)N[C@@H](CCCNC(=N)N)C(N)=O)C(C)C` [compound 130] (H-[Ac6c]RPDKPRPSLPFPRPPRPVR-NH2) gave a Ki (S. aureus DnaK [6]) of 8.46 µM.
“Chex-RPDKPRPYKPDPRPPRPVR-NH2 [compound 160, substituted analog of ARV-1502]” was tested, and the “binding to S. aureus DnaK, FP-value normalized to ARV-1502” value (S. aureus DnaK [2]) was “best binders”.
Molecule `CC(C)C[C@H](NC(=O)[C@H](Cc1ccc(O)cc1)NC(=O)[C@@H]1CCCN1C(=O)[C@H](CCCNC(=N)N)NC(=O)[C@@H]1CCCN1C(=O)[C@H](CCCCN)NC(=O)[C@H](CCCCN)NC(=O)[C@@H]1CCCN1C(=O)[C@H](CCCNC(=N)N)NC(=O)C1(N)CCCCC1)C(=O)N1CCC[C@H]1C(=O)N[C@@H](Cc1ccccc1)C(=O)N1CCC[C@H]1C(=O)N[C@@H](CCCNC(=N)N)C(=O)N1CCC[C@H]1C(=O)N1CCC[C@H]1C(=O)N[C@@H](CCCNC(=N)N)C(=O)N1CCC[C@H]1C(=O)N[C@H](C(=O)N[C@@H](CCCNC(=N)N)C(N)=O)C(C)C` [compound 46] (H-[Ac6c]RPKKPRPYLPFPRPPRPVR-NH2) has a Ki (S. aureus DnaK [6]) of 15.6 µM and a Ki (E. coli DnaK [5]) of 0.66 µM.
In the case of “Chex-RPDKPRPYSPLPRPPRPVR-NH2 [compound 172, substituted analog of ARV-1502]”, the “binding to S. aureus DnaK, FP-value normalized to ARV-1502” value (S. aureus DnaK [2]) is reported as “best binders”.
